Drawing on US10221139B2, “Inhibitors of histone demethylases” (Gilead Sciences, Inc., priority 2012, dated 2019), this text covers IC50 for two molecules.

Holding throughout (format): biochemical
The target in one test is T1, JMJD3 (KDM6B) (Homo sapiens, UniProt O15054).
T1 construct: 1043-end; purchased BPS; host or cells: Bac (baculovirus)
Description: Histone lysine demethylase AlphaLISA assay, JMJD3. The settings on record: substrate BK27M3. As for the experimental part: (§1) Example 2: Histone Lysine Demethylase AlphaLISA Assays for IC50 Value Determination
(§2) Assays are performed analogously to the protocol described by Perkin Elmer (Roy et al. Perkin Elmer Technical Note: AlphaLISA #12, April 2011).
(§3) Enzymes are dissolved in enzyme buffer and incubated for 10 min before 5 μL is added to 5 μL 3% DMSO solutions of compounds in enzyme buffer. Incubated for another 10 minutes, before 5 μL substrate solution is added and the reaction mixture is incubated at room temperature for the given period. 10 μL acceptor beads, suspended at given dilutions in Epigenetic Buffer (Perkin Elmer AL008) from stock, are added and the suspension is incubated 60 minutes in the dark at room temperature, before 10 μL suspension (at the given dilutions in Epigenetic Buffer) of streptavidin donor beads (Perkin Elmer 6760002) in Epigenetic Buffer is added. After incubation at room temperature in the dark the plates are read. Reaction conditions are seen in Table 2b.
Background: Bead proximity is the source of the signal in Alpha formats.

The next test deals with T2, GASC1 (KDM4C, JMJD2C) (Homo sapiens, UniProt Q9H3R0).
T2 construct: 1-349; host or cells: E. coli
T2 sequence (Q9H3R0 1-349): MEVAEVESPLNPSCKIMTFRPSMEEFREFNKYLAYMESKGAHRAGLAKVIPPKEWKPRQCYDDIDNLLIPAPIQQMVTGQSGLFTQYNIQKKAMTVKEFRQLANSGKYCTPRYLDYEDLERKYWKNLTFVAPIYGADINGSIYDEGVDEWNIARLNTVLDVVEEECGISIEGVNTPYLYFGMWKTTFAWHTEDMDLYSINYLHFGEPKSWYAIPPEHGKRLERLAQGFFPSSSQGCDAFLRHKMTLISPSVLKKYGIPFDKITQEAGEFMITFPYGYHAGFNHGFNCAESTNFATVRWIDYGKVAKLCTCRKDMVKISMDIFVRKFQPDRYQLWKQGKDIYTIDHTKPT
Description: Histone lysine demethylase AlphaLISA assay, GASC1. The settings on record: substrate BK9M3. The procedure, abridged:
(§4)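 Each enzyme was preincubated 10 min, then 10 min with compound (added in 3% DMSO solution in enzyme buffer) before substrate addition and reaction at room temperature. Demethylation was detected by AlphaLISA: acceptor beads 60 min in the dark, then streptavidin donor beads, incubated and read; IC50 values determined.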

Another test deals with T3, PHF8 (KDM7) (Homo sapiens, UniProt Q9UPP1).
T3 construct: KDM7 (PHF8); BRIC; 1-1322; Bac
Briefly: Histone lysine demethylase AlphaLISA assay, PHF8. Conditions: substrate BK9M2. On the procedure:
as §1, §2, §3

Another test deals with T4, JMJD2A (KDM4A) (Homo sapiens, UniProt O75164).
T4 construct: 1-350; purchased BPS, Bioscience, US; host or cells: E. coli
T4 sequence (O75164 1-350): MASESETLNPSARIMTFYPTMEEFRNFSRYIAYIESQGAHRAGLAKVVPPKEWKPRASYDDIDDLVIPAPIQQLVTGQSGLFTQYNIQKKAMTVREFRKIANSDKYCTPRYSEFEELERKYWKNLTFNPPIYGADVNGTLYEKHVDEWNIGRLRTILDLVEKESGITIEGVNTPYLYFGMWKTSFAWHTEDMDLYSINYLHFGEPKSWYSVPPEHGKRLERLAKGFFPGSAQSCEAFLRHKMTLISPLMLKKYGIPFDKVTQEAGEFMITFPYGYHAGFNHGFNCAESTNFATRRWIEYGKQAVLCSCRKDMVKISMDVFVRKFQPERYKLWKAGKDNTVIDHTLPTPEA
Description: Histone lysine demethylase AlphaLISA assay, JMJD2A. The settings on record: substrate BK9M3. As for the experimental part:
as §1, §2, §3

A further test concerns the target T5, JMJD2B (KDM4B) (Homo sapiens, UniProt O94953).
T5 construct: 2-500; purchased BPS; host or cells: Bac (baculovirus)
T5 sequence (O94953 2-500): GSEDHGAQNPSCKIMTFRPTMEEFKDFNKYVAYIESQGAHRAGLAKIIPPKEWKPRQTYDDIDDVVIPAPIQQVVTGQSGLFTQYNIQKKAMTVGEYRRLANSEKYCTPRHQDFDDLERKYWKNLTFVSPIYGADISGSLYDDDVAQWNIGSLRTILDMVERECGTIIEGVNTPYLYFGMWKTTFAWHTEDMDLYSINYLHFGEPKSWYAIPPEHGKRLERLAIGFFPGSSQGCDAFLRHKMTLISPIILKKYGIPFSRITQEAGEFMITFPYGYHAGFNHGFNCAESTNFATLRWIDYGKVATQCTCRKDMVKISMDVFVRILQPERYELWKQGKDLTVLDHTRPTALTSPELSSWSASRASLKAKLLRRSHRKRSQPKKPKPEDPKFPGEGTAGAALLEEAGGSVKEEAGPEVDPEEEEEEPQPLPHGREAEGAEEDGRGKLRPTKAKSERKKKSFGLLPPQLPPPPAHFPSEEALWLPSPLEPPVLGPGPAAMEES
Description: Histone lysine demethylase AlphaLISA assay, JMJD2B. Conditions: substrate BK9M3, read-out: JMUD2B IC50. As for the experimental part:
as §1, §2, §3

For a further test, the target named is T6, JMJD1B (KDM3B) (Homo sapiens, UniProt Q7LBC6).
T6 construct: 842-1761; host or cells: Bac (baculovirus)
T6 sequence (Q7LBC6 842-1761): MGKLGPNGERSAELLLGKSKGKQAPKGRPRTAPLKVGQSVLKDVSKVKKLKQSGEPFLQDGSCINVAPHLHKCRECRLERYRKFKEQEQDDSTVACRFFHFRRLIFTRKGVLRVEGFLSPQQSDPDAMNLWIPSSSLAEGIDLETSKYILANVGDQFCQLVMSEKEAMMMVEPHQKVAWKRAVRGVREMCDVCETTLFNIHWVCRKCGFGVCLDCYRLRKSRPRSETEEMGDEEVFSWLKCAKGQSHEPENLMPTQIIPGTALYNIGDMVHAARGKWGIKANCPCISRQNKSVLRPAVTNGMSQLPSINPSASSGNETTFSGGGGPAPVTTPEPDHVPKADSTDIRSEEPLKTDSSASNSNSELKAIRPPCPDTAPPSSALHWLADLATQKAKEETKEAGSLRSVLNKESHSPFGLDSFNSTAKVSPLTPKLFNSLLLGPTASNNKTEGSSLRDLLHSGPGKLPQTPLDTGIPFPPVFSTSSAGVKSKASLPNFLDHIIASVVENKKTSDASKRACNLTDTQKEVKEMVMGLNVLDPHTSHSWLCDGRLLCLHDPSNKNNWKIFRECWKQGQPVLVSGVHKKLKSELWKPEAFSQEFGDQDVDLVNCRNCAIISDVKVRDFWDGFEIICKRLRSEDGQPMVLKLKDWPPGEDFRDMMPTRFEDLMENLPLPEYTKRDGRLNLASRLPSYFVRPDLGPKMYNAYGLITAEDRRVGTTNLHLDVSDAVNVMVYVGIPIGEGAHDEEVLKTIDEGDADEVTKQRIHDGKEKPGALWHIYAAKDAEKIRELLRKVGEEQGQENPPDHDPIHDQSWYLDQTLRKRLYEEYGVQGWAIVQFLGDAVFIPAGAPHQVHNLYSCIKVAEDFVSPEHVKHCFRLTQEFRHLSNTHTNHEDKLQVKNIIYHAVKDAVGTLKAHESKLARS
Briefly: Histone lysine demethylase AlphaLISA assay, JMJD1B. The settings on record: substrate BK9M2. On the procedure: as §1, §2, §3

Another test has as its target T7, UTX (KDM6A) (Homo sapiens, UniProt O15550).
T7 construct: 919-1401; host or cells: E. coli
Briefly: Histone lysine demethylase AlphaLISA assay, UTX. The settings on record: substrate BK27M3. The procedure, abridged: as §4

The next test concerns the target T8, FBXL10 (KDM2B) (Homo sapiens, UniProt Q8NHM5).
T8 construct: 1-650; purchased BPS, Bioscience, US; host or cells: Bac (baculovirus)
T8 sequence (Q8NHM5 1-650): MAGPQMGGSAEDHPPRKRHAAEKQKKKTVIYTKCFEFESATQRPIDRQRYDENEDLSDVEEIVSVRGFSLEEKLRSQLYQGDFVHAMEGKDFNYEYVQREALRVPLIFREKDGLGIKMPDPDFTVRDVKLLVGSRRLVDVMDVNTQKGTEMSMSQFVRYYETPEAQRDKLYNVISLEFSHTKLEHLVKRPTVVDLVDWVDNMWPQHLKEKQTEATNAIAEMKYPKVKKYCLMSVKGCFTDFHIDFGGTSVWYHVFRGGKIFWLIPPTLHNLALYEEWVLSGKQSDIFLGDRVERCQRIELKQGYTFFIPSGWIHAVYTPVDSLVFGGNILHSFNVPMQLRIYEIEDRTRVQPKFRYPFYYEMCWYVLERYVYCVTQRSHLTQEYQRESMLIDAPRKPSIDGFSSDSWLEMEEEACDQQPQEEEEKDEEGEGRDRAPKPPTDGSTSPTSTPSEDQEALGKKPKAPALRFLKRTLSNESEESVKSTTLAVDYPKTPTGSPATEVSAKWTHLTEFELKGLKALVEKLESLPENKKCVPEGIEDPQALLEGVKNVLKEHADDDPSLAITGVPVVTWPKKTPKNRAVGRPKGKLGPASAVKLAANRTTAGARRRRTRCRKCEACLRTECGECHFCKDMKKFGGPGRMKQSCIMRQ
Briefly: Histone lysine demethylase AlphaLISA assay, FBXL10. The settings on record: substrate BH3K36M2. As for the experimental part: as §1, §2, §3

Another test addresses T9, JARID1C (KDM5C) (Homo sapiens, UniProt P41229).
T9 construct: 2-1560; purchased BPS; host or cells: Bac (baculovirus)
Description: Histone lysine demethylase AlphaLISA assay, JARID1C. The settings on record: substrate H3K4M3B. As for the experimental part: as §1, §2, §3

T3 sequence (Q9UPP1 37-477 limits assumed): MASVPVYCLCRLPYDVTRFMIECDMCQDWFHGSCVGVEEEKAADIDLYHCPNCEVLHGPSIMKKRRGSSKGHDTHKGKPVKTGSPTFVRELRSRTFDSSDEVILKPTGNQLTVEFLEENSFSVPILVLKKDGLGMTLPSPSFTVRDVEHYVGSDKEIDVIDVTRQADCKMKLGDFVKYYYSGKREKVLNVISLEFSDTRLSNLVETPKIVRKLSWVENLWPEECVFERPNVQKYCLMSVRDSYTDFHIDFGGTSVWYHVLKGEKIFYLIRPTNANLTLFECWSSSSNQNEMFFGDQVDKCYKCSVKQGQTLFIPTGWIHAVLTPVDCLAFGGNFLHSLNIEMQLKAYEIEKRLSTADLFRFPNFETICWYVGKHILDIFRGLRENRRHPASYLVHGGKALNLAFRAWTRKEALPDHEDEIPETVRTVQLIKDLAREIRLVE
T7 sequence (O15550 919-1401): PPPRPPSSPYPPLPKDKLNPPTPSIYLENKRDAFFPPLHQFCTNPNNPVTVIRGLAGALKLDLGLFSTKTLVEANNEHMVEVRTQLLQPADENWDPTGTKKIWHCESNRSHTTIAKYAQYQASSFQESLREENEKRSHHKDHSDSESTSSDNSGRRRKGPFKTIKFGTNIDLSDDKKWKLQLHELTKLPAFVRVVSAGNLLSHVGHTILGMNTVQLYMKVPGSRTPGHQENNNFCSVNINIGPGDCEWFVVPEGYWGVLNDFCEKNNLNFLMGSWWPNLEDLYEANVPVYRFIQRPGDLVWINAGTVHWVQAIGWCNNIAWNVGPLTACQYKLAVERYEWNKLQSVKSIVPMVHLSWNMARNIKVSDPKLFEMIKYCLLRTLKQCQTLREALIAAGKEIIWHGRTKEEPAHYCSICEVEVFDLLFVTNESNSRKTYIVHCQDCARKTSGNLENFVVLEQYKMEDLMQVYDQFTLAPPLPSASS
T1 sequence (O15054 1043-1682 isoform O15054-1 limits assumed): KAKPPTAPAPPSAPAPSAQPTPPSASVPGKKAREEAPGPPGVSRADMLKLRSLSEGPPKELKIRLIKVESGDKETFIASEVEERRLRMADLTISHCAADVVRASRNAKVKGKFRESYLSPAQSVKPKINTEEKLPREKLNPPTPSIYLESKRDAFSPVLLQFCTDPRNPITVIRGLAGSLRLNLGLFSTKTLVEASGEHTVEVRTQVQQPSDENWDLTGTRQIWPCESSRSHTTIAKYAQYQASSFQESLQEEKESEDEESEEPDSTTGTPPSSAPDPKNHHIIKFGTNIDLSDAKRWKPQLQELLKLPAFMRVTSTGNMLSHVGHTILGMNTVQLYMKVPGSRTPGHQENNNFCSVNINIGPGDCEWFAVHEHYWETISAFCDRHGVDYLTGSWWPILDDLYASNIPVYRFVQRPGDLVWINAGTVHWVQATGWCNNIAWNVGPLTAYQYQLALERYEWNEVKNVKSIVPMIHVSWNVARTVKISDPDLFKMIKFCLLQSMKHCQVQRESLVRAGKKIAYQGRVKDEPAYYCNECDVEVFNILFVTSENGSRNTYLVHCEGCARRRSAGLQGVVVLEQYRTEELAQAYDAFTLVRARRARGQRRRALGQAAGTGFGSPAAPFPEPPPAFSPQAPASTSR
T9 sequence (P41229 2-1560): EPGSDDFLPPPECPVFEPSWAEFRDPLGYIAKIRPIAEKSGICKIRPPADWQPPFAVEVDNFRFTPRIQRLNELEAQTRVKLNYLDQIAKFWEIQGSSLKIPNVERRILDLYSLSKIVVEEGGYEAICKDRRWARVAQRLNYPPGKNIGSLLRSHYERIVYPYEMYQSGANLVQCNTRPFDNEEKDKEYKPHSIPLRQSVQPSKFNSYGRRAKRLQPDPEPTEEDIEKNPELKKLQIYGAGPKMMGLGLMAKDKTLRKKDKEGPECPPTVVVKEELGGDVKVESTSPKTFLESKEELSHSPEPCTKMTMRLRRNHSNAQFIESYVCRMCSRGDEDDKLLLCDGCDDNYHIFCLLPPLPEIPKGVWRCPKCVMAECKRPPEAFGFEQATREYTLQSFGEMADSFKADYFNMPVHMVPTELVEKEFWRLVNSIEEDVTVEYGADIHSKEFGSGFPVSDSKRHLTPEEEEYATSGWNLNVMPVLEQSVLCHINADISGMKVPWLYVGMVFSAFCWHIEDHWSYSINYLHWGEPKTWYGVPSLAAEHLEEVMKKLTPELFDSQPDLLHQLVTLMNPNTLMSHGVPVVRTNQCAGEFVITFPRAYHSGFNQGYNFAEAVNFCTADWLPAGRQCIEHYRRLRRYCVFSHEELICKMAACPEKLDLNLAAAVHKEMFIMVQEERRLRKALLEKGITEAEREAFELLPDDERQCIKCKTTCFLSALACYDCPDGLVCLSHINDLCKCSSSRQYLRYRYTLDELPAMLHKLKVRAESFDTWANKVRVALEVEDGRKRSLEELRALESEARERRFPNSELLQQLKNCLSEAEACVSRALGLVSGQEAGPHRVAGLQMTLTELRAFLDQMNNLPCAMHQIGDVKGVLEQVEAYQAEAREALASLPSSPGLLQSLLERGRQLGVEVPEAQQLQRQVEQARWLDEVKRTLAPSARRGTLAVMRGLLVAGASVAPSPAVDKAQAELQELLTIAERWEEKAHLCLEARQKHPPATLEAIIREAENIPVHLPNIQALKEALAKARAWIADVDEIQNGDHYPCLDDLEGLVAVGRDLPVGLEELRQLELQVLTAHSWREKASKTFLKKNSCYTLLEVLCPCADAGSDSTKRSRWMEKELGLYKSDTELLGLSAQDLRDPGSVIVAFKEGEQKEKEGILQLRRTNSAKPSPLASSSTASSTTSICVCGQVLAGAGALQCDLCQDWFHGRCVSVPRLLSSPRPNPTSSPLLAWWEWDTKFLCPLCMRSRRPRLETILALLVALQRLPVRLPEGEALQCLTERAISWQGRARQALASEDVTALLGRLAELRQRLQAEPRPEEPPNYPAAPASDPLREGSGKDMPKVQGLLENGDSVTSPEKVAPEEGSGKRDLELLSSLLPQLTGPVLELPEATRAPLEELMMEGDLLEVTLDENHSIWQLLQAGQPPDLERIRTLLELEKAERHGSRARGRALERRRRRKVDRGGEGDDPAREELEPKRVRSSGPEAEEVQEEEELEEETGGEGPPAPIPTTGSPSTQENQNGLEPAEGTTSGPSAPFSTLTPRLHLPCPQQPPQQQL

As to `O=C(O)c1ccnc(CN[C@@H]2CCN(CCCc3ccccc3)C2)c1` [#28, 2-({[(3R)-1-(3-phenylpropyl)pyrrolidin-3-yl]amino}methyl)pyridine-4-carboxylic acid], the IC50 against JMJD3 (KDM6B) is ≥ 1 µM; at GASC1 (KDM4C, JMJD2C), ≥ 1 µM; against PHF8 (KDM7), ≥ 1 µM; on JMJD2A (KDM4A), 0.1 to 1 µM; at JMJD2B (KDM4B), 0.1 to 1 µM; against JMJD1B (KDM3B), ≥ 1 µM. The IC50 against UTX (KDM6A) and at FBXL10 (KDM2B) was ≥ 1 µM throughout.
On to `CN(CCCCN(Cc1ccccc1)C1CC1)C(=O)CNCc1cc(C(=O)O)ccn1` [#44, 2-({[({4-[benzyl(cyclopropyl)amino]butyl}(methyl)carbamoyl)methyl]amino}methyl)pyridine-4-carboxylic acid], for which the IC50 on GASC1 (KDM4C, JMJD2C) is < 0.1 µM; on PHF8 (KDM7), 0.1 to 1 µM; against JMJD2A (KDM4A), < 0.1 µM; on JARID1C (KDM5C), < 0.1 µM; on JMJD2B (KDM4B), < 0.1 µM; on JMJD1B (KDM3B), ≥ 1 µM. For the same molecule, the IC50 against FBXL10 (KDM2B) is < 0.1 µM.

A word on the IC50: it is the concentration that inhibits the measured activity by half.
